Data reported in patent US11801000B2, “Hormone electrochemical biosensor” (Trustees of Boston University, priority 2021, dated 2023).
“Also recorded” adds a separate entry of the source.

What was measured:
[1] = tested on: Pimelobacter simplex; assay: RNA-Seq of Pimelobacter simplex in the presence of hormone; assay type: cell-based; conditions: P. simplex grown in the presence of progesterone
Protocol: FIG. 3 is a series of graphs showing that RNA-Seq identified the steroid degrading genome cluster in Pimelobacter simplex.
Strain RNA Extraction: Cells were grown in 5 mL M18 at a starting OD600 of 0.005 with 21.6 μM hormone in 14 mL polypropylene round-bottom tubes (Corning Inc.™, Corning, N.Y.) in singlet. The cells were incubated at 30° C. with continuous orbital shaking at 150 rpm until the end of lag-phase (3 hours) and mid-log phase (7.5 hours) from the start of inoculation. Controls were grown in the same conditions without hormone. […] RNA samples were subsequently quantified using Qubit RNA HS Assay Kit™ (Thermo Fisher Scientific Inc.™, Cambridge, Mass.) and analyzed using a RNA 6000 Pico Kit™ (Agilent Technologies Inc.™, Santa Clara, Calif.) in a 2100 Bioanalyzer™ (Agilent Technologies Inc.™, Santa Clara, Calif.). […]
RNA-Seq Library Preparation: After RNA samples have been quantified and analyzed they were DNase treated using TURBO™ DNase 2 U/μL (Thermo Fisher Scientific Inc™ Cambridge, Mass.) and cleaned using Agencourt RNAClean™ XP SPRI beads (Beckman Coulter, Inc.™, Brea, Calif.). […] Whole transcriptome RNA sequencing was performed by a NextSeq 500™ (Illumina Inc.™, San Diego, Calif.) at high output (400 M reads) with 75 bp paired end sequencing read length. The data was then analyzed in-house through a proprietary lab computational pipeline.

[2] = Cyclic voltammetry, electroactivity on DS110 carbon SPE; assay type: physicochemical
[3] = tested on: KSDH1; assay: 2,6-Dichlorophenolindophenol (DCPIP) dehydrogenase functional assay; assay type: biochemical, Pimelobacter simplex; conditions: for Binding affinity, kinetics derived from velocity by hormone concentration experiment: FIG. 9C-9D
Protocol: A 2,6-Dichlorophenolindophenol functional assay was used to test whether KSDH1 is a dehydrogenase (FIG. 9A).
(§1) The FAD-binding (KSDH1) enzyme was used to develop and optimize a hormone electrochemical biosensor. […] KSDH1 was also assessed using a DCPIP Assay to test whether it is a dehydrogenase.

[4] = tested on: KSDH1; assay: Amplex UltraRed assay (H2O2 detection by fluorescence); assay type: biochemical, Pimelobacter simplex; conditions: 500 μM final PRG, CRT; 4.56 μM KSDH1; normalized (analytes without enzyme subtracted)
Protocol: FIGS. 6A-6B are schematics and graphs detailing the Amplex® UltraRed Reagent assay in which fluorescence is analyte limited, not enzyme limited. FIG. 6A is a schematic showing the Amplex® UltraRed mechanism for oxidase enzymes. Hormone is oxidized into product and H2O2 with presence of […] and O2. Horseradish peroxidase (HRP) then oxidizes Amplex® UltraRed in the presence of H2O2 into resorufin, which is fluorescent.
In Vitro Enzyme Characterization: Amplex® UltraRed assays were performed per instruction of the manufacturer (Thermo Fisher Scientific, Cambridge, Mass.). Final concentrations of Amplex® UltraRed, 500 uM, and HRP, 1 U/mL, in a total volume of 20 μL were used. Hormone and KSDH1 and KSDH2 concentrations varied with experiment. All measurements of fluorescence were done in a 384 well flat bottom black polystyrene microplate (Corning Inc.™, Corning, N.Y.) and read in an Infinite M200 Pro™ (TECAN Group Ltd.™, Medford, Mass.) spectrophotometer at room temperature with the excitation set to 490 nm and emission at 585 nm. Readings were done over 1 hour with each well read every 30 seconds.
as §1

[5] = KSDH1 stability (storage, immobilizing polymer) on biosensor; assay type: physicochemical
Text: FIG. 27. KSDH1 precipitation in the presence of chitosan, an immobilizing polymer, is evident.
FIG. 30A-B. Glutaraldehyde immobilization decreases signal (FIG. 30A).

[6] = DS110, DMSO as solvent (FIG. 16A)
[7] = DS110, EtOH as solvent (FIG. 16B)

CC(=O)[C@H]1CC[C@H]2[C@@H]3CCC4=CC(=O)CC[C@]4(C)[C@H]3CC[C@]12C [Progesterone, progesterone]
Expression of sterol responsive enzymes KSDH1 and KSDH2 (SRGI cluster) [1]: highly expressed
Electroactivity by cyclic voltammetry [2, 6]: not electroactive
Electroactivity by cyclic voltammetry [2, 7]: not electroactive
Binding affinity, kinetics derived from velocity by hormone concentration experiment [3]: strong
KSDH1 sensitivity in sterol screen (DCPIP reduction, absorbance at OD600 nm) ([3]; sterol screen, FIG. 9B): DCPIP was reduced; also recorded: high sensitivity
KSDH1 response (fluorescence signal) to analyte [4]: increase of fluorescence; also recorded: responsive

C[C@]12CCC(=O)C=C1CC[C@@H]1[C@@H]2[C@@H](O)C[C@@]2(C)[C@H]1CC[C@]2(O)C(=O)CO [Cortisol, hydrocortisone]
Electroactivity by cyclic voltammetry [2, 6]: not electroactive
Electroactivity by cyclic voltammetry [2, 7]: not electroactive
Binding affinity, kinetics derived from velocity by hormone concentration experiment [3]: strong
KSDH1 response (fluorescence signal) to analyte [4]: increase of fluorescence; also recorded: responsive

B1: 3-ketosteroid-Δ1-dehydrogenase enzyme 1 (protein)
chain: MDWAEEYDVLVAGSGAGGMAGTYTAAREGLSVCLVEAGDKFGGTTAYSGGGGAWFPANPVLLRAGTDDTIEDALEYYRAVVGDRTPADLQETYVRGGAGLVAYLEEDDHFSFESYPWPDYFGDAPKARRDGQRHIIPTPLPVPSAPELREVVRGPLDNDRLGTPQPDDLFIGGRALVARFLTALATYPHATLVRETALAELVVEDGVVVGAIVETDGVRRAIRARRGVLLAAGGFEANDELRQKYGVPGVARDTMGPPTNVGAAHQAAIAVGADTDLMGEAWWSPGLTHPDGRSAFALWFTGGIFVDGAGRRFVNESAPYDRLGRAVIDHLTEGGVTPRYWMVYDHKEGSIPPVRATNVSMVDEEQYVAAGLWHTADTLPELAALIGVPADALVATVARFNELVADGYDADFGRGGEAYDRFFSGGEPPLVSIDEGPFHAAAFGISDLGTKGGLRTDTSARVLTADGTPIGGLYAAGNTMAAPSGTTYPGGGNPIGTSMLFSHLAVRHMGTEDARGSHHHHHH
modifications: 6xHis tag
Behaviour in the presence of chitosan, an immobilizing polymer ([5]; FIG. 27): precipitation
Current output after storage ([5]; storage at 4 C for 1 week, two electrode configuration, DS110, +0.4V): no change in current output
